According to US12358954B2, “Capsid-modified rAAV vector compositions and methods therefor” (priority 2012, dated 2025):

Tests used:
[1] = tested on: pro-inflammatory cytokines and chemokines; test: Gene-expression analysis of innate immune response in liver by RT-PCR; format: in vivo, C57BL/6J mice
Experimental: Recombinant AAV Vector Transduction Studies in Vivo. Groups of 6-weeks old normal C57BL/6J mice (Jackson Laboratories, Bar Harbor, Me., USA) were administered intra-peritoneally, with a single dose (20 mg/kg) of NF-κB inhibitor Bay11, in a 200-μL volume diluted in DMSO (day 0). Animals injected with only the DMSO carrier solvent were considered as baseline (mock) group (n=75) and animals injected with Bay11 were the test group (n=75). At this point, the animals from mock and Bay11 groups were randomized to receive either phosphate buffered saline (PBS, pH 7.4) or WT-AAV or TM-AAV vectors (n=25 mice each group). On day 1, ˜1×10^11 viral genome (vg) particles of WT-AAV2-EGFP or TM-AAV2-EGFP vectors or PBS were administered intravenously via the tail vein. To measure the modulation of immune response to AAV, 5 animals each from PBS-, WT-AAV-, or TM-AAV vector-injected groups were sacrificed by carbon-dioxide inhalation at different time points post-vector administration (2, 6, 10, 24 hrs and day 10). Hepatic lobes were collected, cross-sectioned and mounted on slides to study the effect of Bay11 on AAV-mediated EGFP expression (from day 10 mice). […]
Gene-Expression Analysis of Innate Immune Response by RT-PCR Assay. […] Data were captured and analyzed using an ABI Prism 7500 Sequence Detection System with v1.1 Software (Applied Biosystems). The baseline was determined automatically for the 18S rRNA and for other genes. Thresholds were determined manually for all genes. Gene expression was measured by the comparative threshold cycle (Ct) method. The parameter threshold cycle (Ct) was defined as the cycle number at which the reporter fluorescence generated by the cleavage of the probe passed a fixed threshold above baseline. […] Relative gene expression was determined for each group of treated and untreated animals and values >2.6 and <0.38 were considered as significant up-regulations and down-regulations between the groups and was calculated by assessing the variability in the 96 well plates used to measure specific gene expression.

anti-AAV2 IgG2a = test: Anti-AAV2 IgG2a levels in peripheral blood; format: in vivo, mice; conditions: day 10
Experimental: Anti-AAV2 IgG2a levels were determined in peripheral blood from mice at day 10 following injections with scAAV vectors, with and without prior administration of Bay11 (n=4 each);
Inhibition of NF-κB Activation Leads to Suppression of Pro-Inflammatory Cytokine Production Prior to AAV Vector-Mediated Gene Transfer in Mice in Vivo. In in vivo studies, a single dose of Bay11 at 20 mg/kg body weight was administered intra-peritoneally (i.p.) 12 hrs prior to vector administration in C57BL/6 mice. Transcript levels from liver homogenates of innate immune mediators (FIG. 3A) or for activation of NF-κB (FIG. 3B) genes were measured from Bay11- and vector-injected groups and compared with sham-injected mice. […] The up-regulation of type I interferon expression by both wild-type (WT-AAV) and TM-AAV vectors was unaffected by Bay11 (FIG. 8A, FIG. 8B, FIG. 8C, FIG. 8D, FIG. 8E, and FIG. 8F).

## Cc1ccc(S(=O)(=O)/C=C/C#N)cc1 [Bay11, Bay11-7082]
[1]; Bay11 20 mg/kg i.p. 12 hrs prior to vector, 2 hrs post-vector
  levels of pro-inflammatory cytokines or chemokines (IL-1α, IL-6, TNFα, IL-12α, KC, RANTES) in liver: significantly reduced
[1]; Bay11 prior to gene transfer, C57BL/6 mice
  decrease in AAV vector-induced production of pro-inflammatory cytokines and chemokines: up to 7 fold
[1]; mouse, in vivo
  up-regulation of type I interferon expression by WT-AAV and TM-AAV vectors: unaffected
anti-AAV2 IgG2a
  anti-AAV2 antibody response: significantly reduced
